Laboratory results as given in patent US20150315241A1, “Antibiotic Peptides” (priority 2007, published 2015).
≈ marks a conversion by molar mass, not a printed value. Where a SMILES comes first, the peptide text is derived from it. Where no end group is shown, it is not given here. [ ]: non-standard residue; d: D form. The star is where a group is joined. Orn(α-tetramethylguanidino) = CN(C)C(=N[C@@H](CCCN)C(=O)*)N(C)C; Orn = NCCC[C@H](N)C(=O)O

How the values were obtained:
[1] = In vivo distribution of fluorescent-labelled peptide (imaging); set-up: species or system female Balb/c mice; conditions: mice, 40 μg i.p., 60-65 min
Protocol: The in vivo distribution was measured in mice using fluorescent-labelled peptides derivatives.
Near-infrared absorbing fluorescent dye Dy675 (Dyomics GmbH, Jena, Germany) was activated with DIC and coupled to the N-terminus of the peptide derivatives after completion of the solid phase peptide synthesis (see example 1). Afterwards the peptides were cleaved with TFA and purified by RP-HPLC (see example 1).
Forty μg of the labelled peptide derivatives were injected subcutaneously (sc) or intra-peritional (ip) into shaved and isoflurane anesthetized female Balb/c mice. The animals were placed into the fluorescence microscope chamber under continuous isoflurane exposure. Fluorescence exposure pictures were taken with an IVIS microscope set to 695 nm emission wavelength at every minute in the first 10 min after peptide addition and every 5 min afterwards until 65 min.

[2] = in vitro; type: in vitro ADME, mouse; conditions: 25% aqueous mouse serum, 37° C.; read-out: Half-life time
Procedure, shortened: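 Peptide or peptidomimetic (0.5 mg/mL aqueous stock) incubated in 25% pooled mouse serum at 37 °C, sampled at 0–6 h, in duplicate. Proteins precipitated with 15% TCA; supernatants neutralized and analyzed by RP-HPLC with 0.1% TFA. Degradation products identified by MALDI-TOF/TOF-MS.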

[3] = system: S. typhi S5; type: cell-based, Salmonella typhi; conditions: S5, 20 h
Procedure, shortened: (§1)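 Read-out: A595 after 20 hrs at 37° C. Bacteria from overnight NB culture, 5×10^6 CFU/mL in 1% TSB, mixed with twofold peptide dilutions (final 125 μg/mL–60 ng/mL). Triplicate wells; water negative control.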

[4] = system: E. coli D31; type: cell-based, Escherichia coli; conditions: D31, 20 h
Procedure, shortened: as §1

[5] = system: S. enterica subsp. Enterica serovar. typhi G10215 ATCC 700408; type: cell-based, Salmonella enterica; conditions: ATCC 700408, 20 h
Procedure, shortened: as §1

[6] = system: M. luteus ATCC 10240; type: cell-based, Micrococcus luteus; conditions: ATCC 10240, 20 h
Procedure, shortened: (§2)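 Two-fold serial dilution in 1% TSB, final 125 μg/mL to 60 ng/mL; inoculum 5×10^6 CFU/mL (before 1:1 mixing with peptide). Incubated 20 hrs at 37° C., growth read as absorbance at 595 nm, in triplicate with sterile water as negative control.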

[7] = system: E. coli 10233; type: cell-based, Escherichia coli; conditions: 10233, 20 h
Procedure, shortened: as §2

[8] = system: K. pneumonia 681; type: cell-based, Klebsiella pneumoniae; conditions: 20 h
Procedure, shortened: as §2

[9] = system: B. subtilis 347; type: cell-based, Bactillus subtillis; conditions: 347, 20 h
Procedure, shortened: as §2

[10] = system: E. coli BL21 AI; conditions: 10 passages
Protocol: The induction of resistance strains was determined according to the macro dilution method under NCCLS-conditions (National Committee for Clinical Laboratory Standards—now Clinical and Laboratory Standards Institute Wayne, Pa., USA, NCCLS-Guideline, M7-A5, Vol. 20, Nr. 2; 2000).
Firstly, minimal inhibition concentrations (MIC) were determined for the peptides to be examined as described in example 3.2. To determine induction of resistance continued dilutions of the peptide with concentrations ranging from 3 fold to 4 fold above to below the MIC were chosen. The test was performed in sterile 96-well microtiter plates with round bottoms (Polystyrene, U-bottom, Greiner Bio-One GmbH, Germany) and 200 μL final volume per well. The freeze-dried peptide or peptide derivatives were dissolved in water and diluted in respect to the MIC in 1% TSB (tryptic soy broth) to obtain a volume of 100 μL. […] The dilutions within the series were twofold.
The bacteria, E. coli BL21 AI, were grown overnight at 37° C. in nutrient broth (NB, Carl Roth GmbH+Co. KG, Karlsruhe, Germany) and diluted to 5×10^6 colony forming units (CFU)/mL in 1% TSB. To start the assay 100 μL of the bacteria dilution was added per well of the microtiter plate loaded with peptide. After incubating the plates for 24 h at 37° C., the absorption was determined at 595 nm using a TECAN microtiter plate reader (Tecan, Germany).
MIC values were calculated as described in example 3.2. The test was repeated using new dilution series with peptide concentrations adapted to the new determined MIC values and using the bacteria culture that grew despite the presence of the inhibitory peptide. This bacteria culture (1st passage) was diluted to 5×10^6 CFU/mL in 1% TSB. […] The test was repeated again with using new dilution series with peptide concentrations adapted to the new determined MIC values and using the bacteria culture that grew despite the presence of the inhibitory peptide (2nd passage). The same procedure was applied for about 8 further passages.
As a control a untreated E. coli BL21 AI culture was chosen and passaged without inhibitory peptides. All peptides and peptide derivatives were measured in triplicates. The number of passages was chosen dependent on the rapidity of induction of resistance and commonly was 10 passages over 10 continuous days.

[11] = system: E. coli 1103; type: cell-based, Escherichia coli; conditions: 1103, 20 h
Procedure, shortened: as §2

[12] = system: human erythrocytes; assay: Hemolytic assay; type: cell-based; conditions: 1 h 37° C., relative to 0.1% Triton X-100, peptide concentration 600 μg/mL
Protocol: To determine whether the peptides and peptide derivatives according to the invention were toxic to mammalian cells, several peptides and peptidomimetics from Example 1 above, a positive control, and a negative control were examined for hemolytic activity. The hemolytic activity was assayed with human erythrocytes. A human erythrocyte concentrate was provided in sodium chloride […]-glucose-mannitol buffer from the Leipzig University Hospital (Leipzig, Germany). The erythrocytes were centrifuged at 1000 G and washed three times with 10 volumes of cold phosphate-buffered saline (PBS, pH 7.4). The erythrocytes were diluted to a final concentration of 1% in PBS. One hundred microliters of this human erythrocyte suspension in PBS was added to each well of a V-shaped 96-well polypropylene microtiter plate (Greiner Bio-One GmbH). […] The microtiter plate was incubated at 37° C. for 1 h and subsequently centrifuged for 10 min at 1000 G. One hundred microliters of the supernatant was transferred to a 96-well flat-bottomed polystyrene microtiter plate (Greiner Bio-One GmbH) and the absorption at 405 nm recorded in a micro plate spectrophotometer (Tecan) to evaluate the heme release. […] The hemolysis percentage was calculated by the following equation[44]: ([…])×100% with E=Extinction at 405 nm All hemolytic assays were performed in duplicates. […]

[13] = cited from earlier work

Row | Compound | MIC S. typhi S5 [3] [µg/mL] | MIC E. coli D31 [4] [µg/mL] | MIC S. enterica subsp. Enterica serovar. typhi G10215 ATCC 700408 [5] [µg/mL] | MIC M. luteus ATCC 10240 [6] [µg/mL] | MIC K. pneumonia 681 [8] [µg/mL] | MIC B. subtilis 347 [9] [µg/mL] | induction of resistance [10] | also measured
1 | 160 (Dy675-[Orn]NNRPVYIPRPRPPHPRL-NH2) [compound 160] |  |  |  |  |  |  |  | in vivo biodistribution (fluorescence imaging) [1]: enriched in brain, liver, and both kidneys
2 | CC[C@H](C)[C@H](NC(=O)[C@H](Cc1ccc(O)cc1)NC(=O)[C@@H](NC(=O)[C@@H]1CCCN1C(=O)[C@H](CCCNC(=N)N)NC(=O)[C@H](CC(N)=O)NC(=O)[C@H](CC(N)=O)NC(=O)[C@H](CCCN)N=C(N(C)C)N(C)C)C(C)C)C(=O)N1CCC[C@H]1C(=O)N[C@@H](CCCNC(=N)N)C(=O)N1CCC[C@H]1C(=O)N[C@@H](CCCNC(=N)N)C(=O)N1CCC[C@H]1C(=O)N1CCC[C@H]1C(=O)N[C@@H](Cc1c[nH]cn1)C(=O)N1CCC[C@H]1C(=O)N[C@@H](CCCNC(=N)N)C(=O)N[C@@H](CC(C)C)C(N)=O [compound 88] ({Orn(α-tetramethylguanidino)}-NNRPVYIPRPRPPHPRL-NH2; N-terminus and C-terminus assumed) | 0.125 (≈ 0.0546 µM) | 0.5 (≈ 0.218 µM) | 0.125 (≈ 0.0546 µM) | 1.95 (≈ 0.851 µM) | 7.81 (≈ 3.41 µM) | 62.5 (≈ 27.3 µM) | no induction of resistance was observed at all | half-life [2]: 15 min; MIC E. coli 10233 [7]: 1.95 µg/mL (≈ 0.851 µM)
3 | CC[C@H](C)[C@H](NC(=O)[C@H](Cc1ccc(O)cc1)NC(=O)[C@@H](NC(=O)[C@@H]1CCCN1C(=O)[C@H](CCCNC(=N)N)NC(=O)[C@H](CC(N)=O)NC(=O)[C@H](CC(N)=O)NC(=O)[C@H](CCCN)N=C(N(C)C)N(C)C)C(C)C)C(=O)N1CCC[C@H]1C(=O)N[C@@H](CCCNC(=N)N)C(=O)N1CCC[C@H]1C(=O)N[C@@H](CCCNC(=N)N)C(=O)N1CCC[C@H]1C(=O)N1CCC[C@H]1C(=O)N[C@@H](Cc1c[nH]cn1)C(=O)N1CCC[C@H]1C(=O)N[C@@H](CCCNC(=N)N)C(=O)N[C@@H](CC(C)C)C(=O)O [compound 137] ({Orn(α-tetramethylguanidino)}-NNRPVYIPRPRPPHPRL-OH; N-terminus and C-terminus assumed) | <1 | <1 | <1 | 8 (≈ 3.49 µM) | 2 (≈ 0.873 µM) | 64 (≈ 27.9 µM) | no induction of resistance was observed at all | MIC E. coli 1103 [11]: 8 µg/mL (≈ 3.49 µM)
4 | (p-tert-Octylphenoxy)polyethoxyethanol [Triton X-100 ®] |  |  |  |  |  |  |  | Haemolysis rate [12]: 100%
5 | GNNRPVYIPQPRPPHPRL [apidaecin] |  |  |  |  |  |  |  | degradation in mammalian serum [13]: completely degradaded within one hour
